Reference: PubChem BioAssay AID248 (DTP/NCI, 2004)
Where “and” joins values, the source holds several entries; their conditions need not be identical. Equal values may be shown once. Toxic doses and inconclusive results are not listed. Cut-off read from the data, not from the text of the source: active = T/C of 150% or more; inactive = T/C below 125%.

Tested on: L1210 leukemia ip in BDF1 mice, survival T/C
Test: NCI In Vivo Anticancer Drug Screen. Data for tumor model L1210 Leukemia (intraperitoneal) in B6D2F1 (BDF1) mice
Conditions: endpoint: mean survival time, higher = longer survival
Summary of the method: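 Read-out is survival time, reported as the treated-group measurement over the vehicle-control measurement.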

[1] = dose: 50.0 mg/kg/injection, schedule: Q01DX001 (ip), vehicle: carboxymethylcellulose (CMC)
[2] = dose: 100.0 mg/kg/injection, schedule: Q01DX001 (ip), vehicle: carboxymethylcellulose (CMC)
[3] = dose: 200.0 mg/kg/injection, schedule: Q01DX001 (ip), vehicle: carboxymethylcellulose (CMC)
[4] = dose: 400.0 mg/kg/injection, schedule: Q01DX001 (ip), vehicle: carboxymethylcellulose (CMC)
[5] = dose: 100.0 mg/kg/injection, schedule: Q04DX003 (ip), vehicle: saline with Tween-80
[6] = dose: 200.0 mg/kg/injection, schedule: Q04DX003 (ip), vehicle: saline with Tween-80
[7] = dose: 400.0 mg/kg/injection, schedule: Q04DX003 (ip), vehicle: saline with Tween-80
[8] = dose: 100.0 mg/kg/injection, schedule: Q04DX003 (ip), vehicle: Klucel (hydroxypropylcellulose) (HPC)
[9] = dose: 50.0 mg/kg/injection, schedule: Q01DX001 (ip), vehicle: saline
[10] = dose: 75.0 mg/kg/injection, schedule: Q01DX001 (ip), vehicle: saline
[11] = dose: 100.0 mg/kg/injection, schedule: Q01DX001 (ip), vehicle: saline
[12] = dose: 200.0 mg/kg/injection, schedule: Q01DX001 (ip), vehicle: saline
[13] = dose: 400.0 mg/kg/injection, schedule: Q01DX001 (ip), vehicle: saline

Measured: T/C

CCCCCC#CCCCCl
inactive: [1] 101 % of control | dose: 50.0 mg/kg/injection, schedule: Q01DX009 (ip), vehicle: carboxymethylcellulose (CMC) 95 % of control and 97 % of control | dose: 50.0 mg/kg/injection, schedule: Q04DX003 (ip), vehicle: carboxymethylcellulose (CMC) 98 % of control | [2] 96 % of control | dose: 100.0 mg/kg/injection, schedule: Q01DX009 (ip), vehicle: carboxymethylcellulose (CMC) 93 % of control and 95 % of control | dose: 100.0 mg/kg/injection, schedule: Q04DX002 (ip), vehicle: carboxymethylcellulose (CMC) 95 % of control and 97 % of control | dose: 100.0 mg/kg/injection, schedule: Q04DX003 (ip), vehicle: carboxymethylcellulose (CMC) 102 % of control | [3] 91 % of control | dose: 200.0 mg/kg/injection, schedule: Q01DX009 (ip), vehicle: carboxymethylcellulose (CMC) 95 % of control | dose: 200.0 mg/kg/injection, schedule: Q04DX002 (ip), vehicle: carboxymethylcellulose (CMC) 100 % of control and 107 % of control | dose: 200.0 mg/kg/injection, schedule: Q04DX003 (ip), vehicle: carboxymethylcellulose (CMC) 94 % of control

CC1=NN(c2ccccc2)C(=O)C1N=Nc1ccc(S(=O)(=O)Nc2ccccn2)cc1 (centres undefined)
inactive: [2] 97 % of control | [3] 94 % of control | [4] 97 % of control

COC(=O)c1ccc(=O)n(C/C=C(\C)CCC2OC2(C)C)c1 (centres undefined)
inactive: dose: 100.0 mg/kg/injection, schedule: Q04DX003 (ip), vehicle: water 100 % of control | dose: 200.0 mg/kg/injection, schedule: Q04DX003 (ip), vehicle: water 104 % of control | dose: 400.0 mg/kg/injection, schedule: Q04DX003 (ip), vehicle: water 102 % of control

COc1ccc(OC(=O)Nc2ccccc2[N+](=O)[O-])cc1
inactive: [5] 106 % of control | [6] 94 % of control | [7] 95 % of control

CC(=O)OC(OC(C)=O)c1ccc([N+](=O)[O-])o1
inactive: dose: 12.5 mg/kg/injection, schedule: Q04DX003 (ip), vehicle: Klucel (hydroxypropylcellulose) (HPC) 101 % of control | dose: 25.0 mg/kg/injection, schedule: Q04DX003 (ip), vehicle: Klucel (hydroxypropylcellulose) (HPC) 87 % of control | dose: 50.0 mg/kg/injection, schedule: Q04DX003 (ip), vehicle: Klucel (hydroxypropylcellulose) (HPC) 98 % of control | [8] 96 % of control

CC(=O)CCc1c(C)nc(Nc2nc3cc(C)c(C)cc3[nH]2)nc1C
inactive: [8] 93 % of control | dose: 200.0 mg/kg/injection, schedule: Q04DX003 (ip), vehicle: Klucel (hydroxypropylcellulose) (HPC) 96 % of control | dose: 400.0 mg/kg/injection, schedule: Q04DX003 (ip), vehicle: Klucel (hydroxypropylcellulose) (HPC) 93 % of control

[C-]#[N+]C(C)(C)CC(C)(C)C
inactive: dose: 18.75 mg/kg/injection, schedule: Q04DX003 (ip), vehicle: acetone 103 % of control | dose: 33.0 mg/kg/injection, schedule: Q01DX001 (ip), vehicle: Klucel (hydroxypropylcellulose) (HPC) 110 % of control | dose: 33.0 mg/kg/injection, schedule: Q01DX001 (ip), vehicle: saline 104 % of control | dose: 37.5 mg/kg/injection, schedule: Q04DX003 (ip), vehicle: acetone 109 % of control | dose: 50.0 mg/kg/injection, schedule: Q01DX001 (ip), vehicle: Klucel (hydroxypropylcellulose) (HPC) 105 % of control | [9] 106 % of control | dose: 75.0 mg/kg/injection, schedule: Q01DX001 (ip), vehicle: Klucel (hydroxypropylcellulose) (HPC) 96 % of control | [10] 104 % of control | dose: 75.0 mg/kg/injection, schedule: Q04DX003 (ip), vehicle: acetone 107 % of control | dose: 110.0 mg/kg/injection, schedule: Q04DX003 (ip), vehicle: saline 94 % of control | dose: 170.0 mg/kg/injection, schedule: Q04DX003 (ip), vehicle: saline 106 % of control

C[N+](C)(CC(=O)Nc1ccc(Cl)c(C(F)(F)F)c1)CC(=O)c1ccc(Cl)c(Cl)c1
inactive: dose: 100.0 mg/kg/injection, schedule: Q04DX003 (ip), vehicle: saline sonified 97 % of control | dose: 200.0 mg/kg/injection, schedule: Q04DX003 (ip), vehicle: saline sonified 111 % of control | dose: 400.0 mg/kg/injection, schedule: Q04DX003 (ip), vehicle: saline sonified 100 % of control

COc1ccccc1N=C(N)N=C(N)N
inactive: [10] 96 % of control | dose: 150.0 mg/kg/injection, schedule: Q01DX001 (ip), vehicle: saline 104 % of control

CC1=NCCc2ccccc21
inactive: dose: 6.25 mg/kg/injection, schedule: Q01DX009 (ip), vehicle: saline 92 % of control | dose: 12.5 mg/kg/injection, schedule: Q01DX009 (ip), vehicle: saline 95 % of control | dose: 25.0 mg/kg/injection, schedule: Q01DX009 (ip), vehicle: saline 90 % of control

COc1cc2c(c3ccccc13)CCCC2=O
inactive: [5] 103 % of control | [6] 93 % of control | [7] 92 % of control

CSC(=S)NN
inactive: dose: 2.0 mg/kg/injection, schedule: Q04DX002 (ip), vehicle: saline 113 % of control | dose: 4.0 mg/kg/injection, schedule: Q04DX002 (ip), vehicle: saline 110 % of control | dose: 8.0 mg/kg/injection, schedule: Q04DX002 (ip), vehicle: saline 94 % of control and 108 % of control

CCCCCC(C)(O)CCCCC
inactive: [2] 101 % of control | [3] 97 % of control | [4] 97 % of control

Nc1nc(N)c2nc(CSc3ccccc3)cnc2n1
inactive: dose: 20.0 mg/kg/injection, schedule: Q01DX009 (ip), vehicle: saline with Tween-80 97 % of control | dose: 40.0 mg/kg/injection, schedule: Q01DX009 (ip), vehicle: saline with Tween-80 97 % of control | dose: 80.0 mg/kg/injection, schedule: Q01DX009 (ip), vehicle: saline with Tween-80 94 % of control

NN=C(NN)NN
inactive: dose: 100.0 mg/kg/injection, schedule: Q04DX002 (ip), vehicle: saline 98 % of control | dose: 200.0 mg/kg/injection, schedule: Q04DX002 (ip), vehicle: saline 104 % of control | dose: 400.0 mg/kg/injection, schedule: Q04DX002 (ip), vehicle: saline 104 % of control

CCCCCCCCCC[Se]C#N
inactive: dose: 5.0 mg/kg/injection, schedule: Q01DX001 (ip), vehicle: saline 112 % of control | dose: 10.0 mg/kg/injection, schedule: Q01DX001 (ip), vehicle: saline 114 % of control

N#CC1(Nc2cccc(C(F)(F)F)c2)CCCCC1
inactive: dose: 100.0 mg/kg/injection, schedule: Q01DX009 (ip), vehicle: Klucel (hydroxypropylcellulose) (HPC) 94 % of control | dose: 200.0 mg/kg/injection, schedule: Q01DX009 (ip), vehicle: Klucel (hydroxypropylcellulose) (HPC) 105 % of control | dose: 400.0 mg/kg/injection, schedule: Q01DX009 (ip), vehicle: Klucel (hydroxypropylcellulose) (HPC) 100 % of control

O=C(C(=O)c1ccc(O)cc1O)c1ccc(O)cc1O
inactive: [11] 97 % of control | [12] 97 % of control | [13] 97 % of control

CCCCCCCNC
inactive: [1] 99 % of control | [2] 99 % of control | [3] 96 % of control

CCOP(=O)(OCC)O/N=C(/C#N)c1ccccc1
inactive: [10] 91 % of control

O=C(Nc1ccc(C2=NCCN2)cc1)c1ccc2cc(C(=O)Nc3ccc(C4=NCCN4)cc3)ccc2c1
inactive: dose: 15.0 mg/kg/injection, schedule: Q01DX Z (ip), vehicle: carboxymethylcellulose (CMC) 123 % of control | dose: 120.0 mg/kg/injection, schedule: Q01DX Z (ip), vehicle: carboxymethylcellulose (CMC) 120 % of control

CC1C(=O)C(C)C(C(=O)O)C1C (centres undefined)
inactive: dose: 100.0 mg/kg/injection, schedule: Q04DX002 (ip), vehicle: Klucel (hydroxypropylcellulose) (HPC) 100 % of control | dose: 200.0 mg/kg/injection, schedule: Q04DX002 (ip), vehicle: Klucel (hydroxypropylcellulose) (HPC) 107 % of control | dose: 400.0 mg/kg/injection, schedule: Q04DX002 (ip), vehicle: Klucel (hydroxypropylcellulose) (HPC) 93 % of control

O=c1cnc2ccccc2[nH]1
inactive: [5] 108 % of control | [6] 97 % of control

CCC(C)NP(=O)(OC1CC(C)(C)N(O)C(C)(C)C1)OC1CC(C)(C)N(O)C(C)(C)C1 (centres undefined)
inactive: dose: 50.0 mg/kg/injection, schedule: Q01DX001 (ip), vehicle: water 98 % of control | dose: 100.0 mg/kg/injection, schedule: Q01DX001 (ip), vehicle: water 98 % of control | dose: 200.0 mg/kg/injection, schedule: Q01DX001 (ip), vehicle: water 94 % of control

CCCCCCCCCCCCCCCC[As](=O)(O)CCCCCCCCCCCCCCCC
inactive: [9] 97 % of control | [11] 97 % of control | [12] 89 % of control | [13] 101 % of control

CCCCP(=O)(CCCC)CCP(=O)(CCCC)CCCC
inactive: [5] 88 % of control | [6] 97 % of control
